This passage reports IC50 results from BindingDB's records for doi:10.1016/S0960-894X(96)00563-X (1996).

For the assay, the target named is Tachykinin NK1 receptor (Bos taurus). Put plainly: Binding affinity against NK1 receptor by displacement of [3H]SP from bovine retina membranes.
The molecule `Cc1cc(C)cc(C(=O)N2CC[C@H](NCc3ccnc4ccccc34)C[C@H]2Cc2ccc(Cl)cc2Cl)c1` [{(2R,4S)-2-(2,4-Dichloro-benzyl)-4-[(quinolin-4-ylmethyl)-amino]-piperidin-1-yl}-(3,5-dimethyl-phenyl)-methanone] gave an IC50 of 600 nM.
Take `Cc1cc(C)cc(C(=O)N2CC[C@H](NCc3ccnc4ccccc34)C[C@H]2Cc2ccc(C#N)cc2)c1` [4-{(2R,4S)-1-(3,5-Dimethyl-benzoyl)-4-[(quinolin-4-ylmethyl)-amino]-piperidin-2-ylmethyl}-benzonitrile]: the IC50 turned out to be 21 nM. Against the preceding molecule, the IC50 is about 29-fold lower.
The result for `COc1ccc(C[C@@H]2C[C@@H](NCc3ccnc4ccccc34)CCN2C(=O)c2cc(C)cc(C)c2)cc1` [(3,5-Dimethyl-phenyl)-{(2R,4S)-2-(4-methoxy-benzyl)-4-[(quinolin-4-ylmethyl)-amino]-piperidin-1-yl}-methanone] reads 14 nM; that for `Cc1cc(C)cc(C(=O)N2CC[C@H](NCc3ccnc4ccccc34)C[C@H]2Cc2ccc([N+](=O)[O-])cc2)c1` [(3,5-Dimethyl-phenyl)-{(2R,4S)-2-(4-nitro-benzyl)-4-[(quinolin-4-ylmethyl)-amino]-piperidin-1-yl}-methanone], 3 nM; that for `Cc1cc(C)cc(C(=O)N2CC[C@H](NCc3ccnc4ccccc34)C[C@H]2Cc2ccc(C(F)(F)F)cc2)c1` [(3,5-Dimethyl-phenyl)-[(2R,4S)-4-[(quinolin-4-ylmethyl)-amino]-2-(4-trifluoromethyl-benzyl)-piperidin-1-yl]-methanone], 11 nM.
Take `Cc1cc(C)cc(C(=O)N2CC[C@H](NCc3ccnc4ccccc34)C[C@H]2CCc2ccccc2)c1` [(3,5-Dimethyl-phenyl)-{(2R,4S)-2-phenethyl-4-[(quinolin-4-ylmethyl)-amino]-piperidin-1-yl}-methanone]: the IC50 came to 190 nM.
The same measure for `Cc1cc(C)cc(C(=O)N2CC[C@H](NCc3ccnc4ccccc34)C[C@H]2Cc2ccc3ccccc3c2)c1` [(3,5-Dimethyl-phenyl)-{(2R,4S)-2-naphthalen-2-ylmethyl-4-[(quinolin-4-ylmethyl)-amino]-piperidin-1-yl}-methanone]: 14 nM.
The same measure for `Cc1cc(C)cc(C(=O)N2CC[C@H](NCc3ccnc4ccccc34)C[C@H]2Cc2ccc(Cl)cc2)c1` [{(2R,4S)-2-(4-Chloro-benzyl)-4-[(quinolin-4-ylmethyl)-amino]-piperidin-1-yl}-(3,5-dimethyl-phenyl)-methanone]: 13 nM; for `Cc1cc(C)cc(C(=O)N2CC[C@H](NCc3ccnc4ccccc34)C[C@H]2Cc2cc(Br)cc(Br)c2)c1` [{(2R,4S)-2-(3,5-Dibromo-benzyl)-4-[(quinolin-4-ylmethyl)-amino]-piperidin-1-yl}-(3,5-dimethyl-phenyl)-methanone]: 52 nM; for `Cc1cc(C)cc(C(=O)N2CC[C@H](NCc3ccnc4ccccc34)C[C@H]2Cc2ccc(Cl)c(Cl)c2)c1` [{(2R,4S)-2-(3,4-Dichloro-benzyl)-4-[(quinolin-4-ylmethyl)-amino]-piperidin-1-yl}-(3,5-dimethyl-phenyl)-methanone]: 9 nM.
The result for `COc1cccc(C[C@@H]2C[C@@H](NCc3ccnc4ccccc34)CCN2C(=O)c2cc(C)cc(C)c2)c1` [(3,5-Dimethyl-phenyl)-{(2R,4S)-2-(3-methoxy-benzyl)-4-[(quinolin-4-ylmethyl)-amino]-piperidin-1-yl}-methanone] reads 27 nM; that for `Cc1cc(C)cc(C(=O)N2CC[C@H](NCc3ccnc4ccccc34)C[C@H]2Cc2ccc(C(N)=O)cc2)c1` [4-{(2R,4S)-1-(3,5-Dimethyl-benzoyl)-4-[(quinolin-4-ylmethyl)-amino]-piperidin-2-ylmethyl}-benzamide], 100 nM.
